Experimental data as given in patent publication US20240280490A1, “SYSTEMS AND METHODS FOR SIMULTANEOUS NEAR-INFRARED LIGHT AND VISIBLE LIGHT IMAGING” (priority 2020, published 2024).
Entries after “also recorded” stand apart in the source; their conditions may differ.

Tests used:
[1] = test system: Grade 4 Atypical Teratoid Rhabdoid Tumor (ATRT) in the posterior fossa/brain stem; assay: Intraoperative NIR fluorescence imaging during pediatric brain tumor resection; format: in vivo, human
Description: This example describes use of the imaging system and/or method disclosed herein for coaxial illumination and visualization of tozuleristide fluorescence during surgical resection of a pediatric brain tumor. The imaging system of the present invention was used to image brain tissue to detect a cancer using fluorescence imaging. Surgery was performed to remove cancer from the subject.
Subject T613 was diagnosed with a Grade 4 Atypical Teratoid Rhabdoid Tumor (ATRT) in the posterior fossa/brain stem. Tozuleristide which is a peptide-fluorophore detectable agent (15 mg/m2 dose), was given by intravenous (IV) bolus injection about 13.5 hours prior to the start of surgery. The imaging system was attached to the Zeiss Pentero surgical microscope prior the start of surgery, and the microscope head and arm and the imaging system and proximal imaging cable were enclosed in the microscope manufacturer's standard sterile drape. The drape's cover glass was secured over the bottom window aperture of the imaging system.
After the tumor was exposed, the imaging platform was initialized and used continuously. The imaging platform enabled the surgeon to view fluorescence and visible imaging separately and together on the imaging station display, simultaneously with viewing the surgical site in visible light through the operating microscope's eyepieces. […] Moreover, there was no need to reposition the operating microscope to view the imaging platform's fluorescence and visible images, thus allowing normal imaging of the surgical area through the microscope's eyepieces together with the fluorescence imaging system during the operation, which decreased disruption to the surgical workflow.
Video was captured for the duration of the tumor resection, and still images were captured of the exposed tumor. […] FIGS. 15A-15F show images taken from the tumor resection with the near-infrared (NIR) fluorescence images of the tumor using the imaging system (FIGS. 15B and 15E) and the overlay image with the NIR or IR fluorescence overlaid with the white light or visible light spectrum illumination (FIGS. 15C and 15F). […] In the overlay image, the normal brain tissue appeared red, as it does under normal visible light or white light as shown the visible light images of the tumor ([…]). The surgeon noted that only tumor tissue appeared fluorescent.

[2] = test system: vascular lesion (abnormal vasculature) in brain tissue; assay: Intraoperative NIR fluorescence imaging during resection of a cerebral vascular lesion (arteriovenous or cavernous malformation); format: in vivo, human; conditions: for Fluorescence in surrounding normal brain tissue and normal vasculature / Tozuleristide fluorescence in the abnormal vascular tissue / vascular lesion: pediatric subject, 22 mg IV approximately 5-6 hours before surgery and image collection, in situ
Description: This example describes use of the imaging system and/or methods disclosed herein for coaxial illumination and visualization of tozuleristide fluorescence during surgical resection of an arteriovenous malformation or cavernous malformation in a pediatric patient. The imaging system of the present invention was used to image brain tissue to detect abnormal vasculature using fluorescence imaging. Surgery was performed to remove the abnormality from the subject.
A pediatric subject with a history of anosmia was found on MRI to have a 3.5 cm T1-hypointense, T2/FLAIR-hyperintense mass in the right middle frontal gyrus with a central enhancing nodule, initially diagnosed pre-operatively to be a low-grade glioma. […] The patient received 22 mg tozuleristide via IV injection approximately 5-6 hours before surgery and image collection. The imaging system head was attached to the Zeiss Pentero surgical microscope along with two eyepieces prior the start of surgery.
After the lesion was exposed, the imaging system was initialized and used continuously. The imaging system enabled the surgeon to view fluorescence and visible imaging together and simultaneously with the operating microscope. A microsurgical resection was performed through a right frontal craniotomy. […] The abnormal tissue was completely resected. The patient recovered without deficit. Pathology confirmed the absence of tumor.
Video was captured for the duration of the resection, and still images were captured of the exposed lesion. […] FIGS. 29A-I show images taken from the vascular lesion with the near-infrared (NIR) fluorescence images of the vascular lesion using the imaging system. […] In the overlay image, the normal brain tissue and normal blood vessels appeared pink or light tan to red, as it does under normal visible light or white light. The surgeon noted that only the abnormal vascular tissue appeared fluorescent.
FIGS. 29A-I show representative images of in situ or intra-operative tissue during surgery on a vascular lesion in a patient, wherein 22 mg of tozuleristide was administered to the human subject. […] Labeled arrows indicate non-fluorescent regions of normal blood vessels (“BV”) and normal brain tissue (“NB”). In contrast, fluorescence signal corresponding to lighter and brighter areas in the NIR or IR image, was indicative of the presence of tozuleristide on the abnormal vascular lesion (“VL”), and not in normal tissue. […] The arrows mark the same locations as shown in the NIR or IR image in FIG. 29E. […] Fluorescence in the vascular lesion (“VL”) clearly differentiated it from the surrounding normal tissues, including normal blood vessels (“BV”). […] Arrows indicate the vascular lesion (labeled “VL”) and adjacent normal brain (labeled “NB”), which is non-fluorescent. […] While the normal brain has a light tan to pink color (light gray in a gray scale image), it is perfused with normal blood vessels that can be differentiated from the vascular lesion by the absence of fluorescence.

[3] = test system: vascular lesion (abnormal vasculature) in brain tissue; conditions: ICG alone; general comparison statement; cited from earlier work
[4] = Subject T613, 15 mg/m2 IV bolus about 13.5 hours prior to start of surgery, in situ

Row | Compound | Surgeon's assessment of the distinction between tumor and normal tissue fluorescence ([1]; NIR or IR fluorescence using the imaging system, compared with normal visible light) | Fluorescence in non-tumor brain tissue [1, 4] | Tozuleristide fluorescence in the exposed tumor (NIR or IR fluorescence image) [1, 4] | Histopathology of the fluorescent tissue samples ([1]; tumor resection, Subject T613) | Time after injection at which diseased tissue can be highlighted ([2]; general statement, fluorescence dependent on pathological tissue binding and uptake) | Fluorescence in surrounding normal brain tissue and normal vasculature [2] | Tozuleristide fluorescence in the abnormal vascular tissue / vascular lesion [2] | Fluorescence in surrounding normal brain tissue and normal vasculature ([2]; listed as Tozuleristide) | Tozuleristide fluorescence in the abnormal vascular tissue / vascular lesion ([2]; listed as Tozuleristide) | Histopathology of the fluorescent tissue samples ([2]; vascular lesion resection) | Blood vessel fluorescence after injection [3]
1 | Tozuleristide | very good distinction between tumor and normal tissue fluorescence | did not show any fluorescence | observed in situ in the exposed tumor | confirmed to be viable tumor | up to 30 hours | showed no fluorescence | indicative of the presence of tozuleristide in the vascular lesion; also recorded: fluoresced avidly | no discernable background fluorescence | observed in situ in the exposed vascular lesion | confirmed to be non-cancerous and vascular in nature | –
2 | CC1(C)C(/C=C/C=C/C=C/C=C2\N(CCCCS(=O)(=O)O)c3ccc4ccccc4c3C2(C)C)=[N+](CCCCS(=O)(=O)[O-])c2ccc3ccccc3c21 [ICG, indocyanine green] | – | – | – | – | – | – | – | – | – | – | transiently lights up blood vessels immediately after injection
